Legend:
α–glucosidases [1] = experiment: α–glucosidase inhibition assay (crude intestinal enzyme, corn starch substrate); type: biochemical, Wistar rats; conditions: for Inhibition percentage α–glucosidases: mean ± standard deviation; for IC50: pure compounds, intestinal rat enzyme, starch as substrate
Protocol: The α–glucosidase assay was previously reported. In brief, corn starch (4 mg/mL) was digested by crude enzyme at 37°C during 10 minutes in a phosphate buffer pH 7 solution at a sample concentration of 0.6 mg/mL (dissolved in DMSO and water). Subsequently, released glucose was quantified by a glucose oxidase-based clinical reagent with the GOD–POD Trinder kit (Spinreact, Girona, Spain) following manufacturer's directions. All tests were performed in quadruplicate. Crude enzyme was obtained directly from healthy Wistar rats (12 h fasting). The small intestine was flushed several times with ice-cold isotonic buffer pH 7 and after the scraping of the mucosa, it was homogenized and stored at -20°C. Animal care and management were carried out under the guidelines of Mexican Official Standard NOM–062–ZOO–1999.
(§1) The logarithm of the concentration was plotted on the x-axis and the percentage of enzymatic inhibitory activity on the y-axis to obtain a semilogarithmic graphic.

[2] = molecular target: T1, lipase from porcine pancreas (Sus scrofa, UniProt P00591); experiment: Pancreatic lipase inhibition assay (DMPTB/DTNB); type: biochemical; conditions: for inhibition at 250 µg/mL: sample at 0.25 mg/mL
T1 construct: lipase from porcine pancreas (PPL type II, 100–500 units/mg, L3126); purchased Sigma–Aldrich L3126; host or cells: porcine pancreas
T1 sequence (P00591 1-450): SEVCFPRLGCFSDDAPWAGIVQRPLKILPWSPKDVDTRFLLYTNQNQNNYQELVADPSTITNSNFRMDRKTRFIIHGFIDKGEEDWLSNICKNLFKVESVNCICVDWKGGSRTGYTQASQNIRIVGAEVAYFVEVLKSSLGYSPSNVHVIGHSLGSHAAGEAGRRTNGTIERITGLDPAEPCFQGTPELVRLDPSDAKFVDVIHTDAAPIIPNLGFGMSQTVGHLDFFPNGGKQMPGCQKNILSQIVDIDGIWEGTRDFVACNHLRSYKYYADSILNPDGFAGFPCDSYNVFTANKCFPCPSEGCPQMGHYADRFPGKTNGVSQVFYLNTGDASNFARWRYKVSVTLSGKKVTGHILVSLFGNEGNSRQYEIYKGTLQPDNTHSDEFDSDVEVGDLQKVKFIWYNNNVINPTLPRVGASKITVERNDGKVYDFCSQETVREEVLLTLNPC
Protocol: Pancreatic lipase inhibition assay was previously reported. Briefly, the absorbance of a mixture of DTNB 0.2 mM, DMPTB 0.8 mM, NaCl 0.1M, CaCl2 2 mM, Triton X–100 0.04%, porcine lipase 65 μg/mL, and the sample (dissolved in DMSO and water) at 0.25 mg/mL was followed with a Thermo Scientific Genesys 20 Visible Spectrophotometer (Fisher Scientific, 4001000, Hampton, NH) at 412 nm every 20 s for five minutes and plotted (Excel, Microsoft) to obtain initial velocity value. The lipase was prepared as a stock at 10 mg/mL in Tris–HCl 25 mM pH 6.2 with 0.1 M NaCl, SDS 2 mM, and 250 μL/mL of glycerol. A control assay without substrate was carried out to discard nonspecific reactions with DTMB. All reactions were tested by triplicate.
as §1

sucrase = molecular target: sucrase; parameters: method as in doi:10.1016/j.foodchem.2010.03.075; conditions: rat; read-out: IC50 inhibition of sucrase; cited from earlier work
maltase = molecular target: maltase; parameters: method as in doi:10.1016/j.foodchem.2010.03.075; conditions: rat; read-out: IC50 inhibition of maltase; cited from earlier work
α–glucosidases [3] = experiment: Type of inhibition and Ki on α–glucosidases by Lineweaver–Burk plots (maltodextrin substrate); type: biochemical, Wistar rats; conditions: for Type of enzymatic inhibition of α–glucosidases: Lineweaver–Burk plots
Protocol: (§2) The type of inhibition was determined quantifying the activity with and without inhibitor at different substrate concentrations (5–0.35 mg/mL for α–glucosidases and 0.05–0.2 μg/mL for pancreatic lipase) and comparing Lineweaver–Burk plots (inverse substrate concentration [S] and inverse reaction velocity V). In the case of the determination of α–glucosidase type of inhibition, the substrate was changed from corn starch to maltodextrin (MD100, Luzhou Bio–Chem Technology Co., Shandong, China), in order to have greater uniformity in the reaction.
Michaelis–Menten constant (Km) and apparent Km (Km^app) were obtained analysing the Lineweaver–Burk plots. These values allowed to obtain the inhibition constant (Ki) for competitive inhibitors using (2), where [I] represents inhibitor concentration.(2) Km^app=Km1+I/Ki

pancreatic lipase = molecular target: T2, pancreatic lipase (Sus scrofa, UniProt P00591); experiment: Type of inhibition on pancreatic lipase by Lineweaver–Burk plots; type: biochemical, porcine
T2 construct: lipase from porcine pancreas (PPL type II, 100–500 units/mg, L3126); purchased Sigma–Aldrich L3126; host or cells: porcine pancreas
T2 sequence (P00591 1-450): T1 sequence (P00591 1-450)
Protocol: as §2

[4] = mean ± standard deviation, read-out: Inhibition percentage Pancreatic lipase

Structure (SMILES)	IC50 (α–glucosidases [1]) [µM]	Inhibition percentage α–glucosidases (α–glucosidases [1]; sample at 0.6 mg/mL) [%]	inhibition at 250 µg/mL [2, 4] [%]	IC50 (sucrase) [µM]	IC50 (maltase) [µM]	Type of enzymatic inhibition of α–glucosidases (α–glucosidases [3])	Ki (α–glucosidases [3]; inhibitor at 625 μM) [µM]	Ki (α–glucosidases [3]; inhibitor at 1250 μM) [µM]	further results
C[C@H]1O[C@H](O[C@H]2[C@H](O)[C@@H](O)[C@@H](O[C@H]3[C@H](O)[C@@H](O)C(O)O[C@@H]3CO)O[C@@H]2CO)[C@H](O)[C@@H](O)[C@@H]1N[C@H]1C=C(CO)[C@@H](O)[C@H](O)[C@H]1O (some centres unmarked) [Acarbose, acarbose, reference compound]	–	–	–	–	–	–	–	–	Inhibition percentage α–glucosidases (α–glucosidases [1]; evaluated at 5.8 µM): 50.0 ± 1.6∗ %
CCOC(=O)c1cc(O)c(O)c(O)c1 [C1F1 (ethyl gallate), ethyl gallate]	832	98.4 ± 2.0	23.2 ± 3	660	415	competitive enzymatic inhibition	636	315	–
O=C(O)c1cc(O)c(O)c(O)c1 [C2F1 (gallic acid), gallic acid]	969	98.9 ± 0.6	–	130	390	competitive enzymatic inhibition	436	208	–
O=c1cc(-c2ccc(O)c(O)c2)oc2cc(O)c([C@@H]3O[C@H](CO)[C@@H](O)[C@H](O)[C@H]3O)c(O)c12 [C4F4–P (isoorientin), isoorientin]	–	–	55.1 ± 3.1	–	–	–	–	–	Type of enzymatic inhibition of pancreatic lipase (pancreatic lipase): uncompetitive enzymatic inhibition; IC50 ([2]; pure compound): 201 µM
O=c1cc(-c2ccc(O)c(O)c2)oc2cc(O)cc(O)c12 [Luteolin, reference compound]	1260	66.3 ± 5.6	–	–	–	–	–	–	IC50 (α–glucosidases [1]; listed as luteolin): ~1260 µM
CCCCCCCCCCC[C@@H](C[C@@H]1OC(=O)[C@H]1CCCCCC)OC(=O)[C@H](CC(C)C)NC=O [Orlistat, orlistat, reference compound]	–	–	–	–	–	–	–	–	inhibition at 1.6 µM ([2]; evaluated at 1.6 µM, mean ± standard deviation, read-out: Inhibition percentage Pancreatic lipase): 50 ± 2.6%

— article PMC6076925, “Identification of Digestive Enzyme Inhibitors from Ludwigia octovalvis (Jacq.) P.H.Raven” (Evidence-based Complementary and Alternative Medicine : eCAM, 2018)
